Measurements: patent US20210355066A1 (CymaBay Therapeutics, Inc., priority 2020, published 2021)

Tests used:
CYP 2C9 = CYP 2C9 (Homo sapiens, UniProt P11712); conditions: tolbutamide hydroxylation assay; relative to (S)-enantiomer; cited from earlier work
[1] = crystalline form
Source text: A weighed aluminum pan configured as the sample pan was placed on the […] side of the cell.

Chain of CYP 2C9 (P11712 whole entry, species assumed): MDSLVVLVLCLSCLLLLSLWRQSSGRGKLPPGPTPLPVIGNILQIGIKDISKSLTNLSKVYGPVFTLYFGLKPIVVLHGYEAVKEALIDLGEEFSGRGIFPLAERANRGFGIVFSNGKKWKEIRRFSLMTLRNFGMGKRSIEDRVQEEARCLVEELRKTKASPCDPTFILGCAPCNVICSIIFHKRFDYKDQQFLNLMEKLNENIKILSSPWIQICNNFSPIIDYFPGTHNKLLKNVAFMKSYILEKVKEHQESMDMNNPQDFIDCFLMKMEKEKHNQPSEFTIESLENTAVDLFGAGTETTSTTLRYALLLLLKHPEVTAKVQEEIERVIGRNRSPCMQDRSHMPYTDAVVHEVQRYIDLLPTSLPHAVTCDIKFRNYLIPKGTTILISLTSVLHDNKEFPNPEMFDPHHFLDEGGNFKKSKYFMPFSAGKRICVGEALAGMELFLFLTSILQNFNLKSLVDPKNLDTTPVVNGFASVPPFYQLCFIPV

For O=C(O)[C@H](Oc1cccc(C(F)(F)F)c1)c1ccc(Cl)cc1 [CB-0406, (2R)-2-(4-chlorophenyl)-2-[3-(trifluoromethyl)phenoxy]acetic acid], the “fold less active as an inhibitor of CYP 2C9 than its (S)-enantiomer” value (CYP 2C9) is listed as “approximately 20 fold”.
With “2-hydroxy-N,N,N-trimethylethan-1-aminium (2R)-2-(4-chlorophenyl)-2-[3-(trifluoromethyl)phenoxy]acetate [CB-0406 choline salt]” the “stability to thermal stress” value [1] was “good stability to thermal stress”.
